Measurements: patent publication US9221827B2, “Antimicrobial compounds and methods of making and using the same” (Melinta Therapeutics, Inc., priority 2011, dated 2015)

System: Escherichia coli strain ATCC25922
Test: standard microdilution assay to determine minimum inhibitory concentrations (MICs)
Assay type: cell-based
Settings: Escherichia coli strain ATCC25922, microdilution
Procedure, shortened: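 Broth microdilution per CLSI (M7-A8/M100-S20), 100 μl final volume, with reference-strain quality control; MIC is the lowest inhibitory concentration. Scored "+"/"−" against a 16 micrograms/ml cutoff, "N/A" where unavailable.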

MIC (read-out: E. coli ATCC25922 MIC) | Compound | E. coli ATCC25922 MIC
 | C[C@H](NCCCNC(=N)N)c1ccc(-n2cc3cc(-c4ccc(C(NC5CN(C(=N)N)C5)C(F)(F)F)cc4)[nH]c3nc2=O)cc1 (stereo partly shown) [Compound 227] | + (a “+” indicates that the compound has an MIC value of 16 micrograms/ml or less)
 | N=C(N)NCCCNCc1ccc(-n2cc3cc(-c4cc(CCCN)cc(Cl)c4F)[nH]c3nc2=O)cc1 [Compound 228] | + (a “+” indicates that the compound has an MIC value of 16 micrograms/ml or less)
 | CCOc1cc(CCCCN)cc(-c2cc3cn(-c4ccc(CNCCCNC(=N)N)cc4)c(=O)nc3[nH]2)c1C(F)(F)F [Compound 229] | + (a “+” indicates that the compound has an MIC value of 16 micrograms/ml or less)
 | C[C@H](N)CCCc1cc(OC(F)(F)F)cc(-c2cc3cn(-c4ccc([C@H](C)NCCCNC(=N)N)cc4)c(=O)nc3[nH]2)c1 [Compound 230] | + (a “+” indicates that the compound has an MIC value of 16 micrograms/ml or less)
 | CC(N)CCCc1cc(SC(F)(F)F)cc(-c2cc3cn(-c4ccc(C(C)NCCCNC(=N)N)cc4)c(=O)nc3[nH]2)c1 (stereo not shown) [Compound 231] | + (a “+” indicates that the compound has an MIC value of 16 micrograms/ml or less)
 | CCc1cc(CCCCN)cc(-c2cc3cn(-c4ccc(CNCCCNC(=N)N)cc4)c(=O)nc3[nH]2)c1C(F)(F)F [Compound 233] | + (a “+” indicates that the compound has an MIC value of 16 micrograms/ml or less)
≤ 16 µg/mL | C[C@H](N)CCCc1cc(Cl)c(F)c(-c2cc3cn(-c4ccc([C@H](C)NCCCNC(=N)N)cc4)c(=O)nc3[nH]2)c1 [Compound 234] | 
 | C[C@H](N)CCCc1cc(SC(F)(F)F)cc(-c2cc3cn(-c4ccc(CNCCCNC(=N)N)cc4)c(=O)nc3[nH]2)c1 [Compound 235] | + (a “+” indicates that the compound has an MIC value of 16 micrograms/ml or less)
 | C[C@H](N)CCCc1cc(-c2cc3cn(-c4ccc([C@H](C)NCCCNC(=N)N)cc4)c(=O)nc3[nH]2)cc(C(F)(F)F)c1 [Compound 236] | + (a “+” indicates that the compound has an MIC value of 16 micrograms/ml or less)
 | Cc1c(OC(F)F)cc(CCCCN)cc1-c1cc2cn(-c3ccc(CNCCCNC(=N)N)cc3)c(=O)nc2[nH]1 [Compound 237] | + (a “+” indicates that the compound has an MIC value of 16 micrograms/ml or less)
 | N=C(N)NCCCNCc1ccc(-n2cc3cc(-c4cc(CC[C@@H](O)CN)cc(OC(F)(F)F)c4)[nH]c3nc2=O)cc1 [Compound 238] | + (a “+” indicates that the compound has an MIC value of 16 micrograms/ml or less)
 | N=C(N)NCCCNCc1ccc(-n2cc3cc(-c4cc(CC[C@H](O)CN)cc(OC(F)(F)F)c4)[nH]c3nc2=O)cc1 [Compound 239] | + (a “+” indicates that the compound has an MIC value of 16 micrograms/ml or less)
 | N=C(N)NCCCNCc1ccc(-n2cc3cc(-c4cc(CCC(O)CN)cc(OC(F)(F)F)c4)[nH]c3nc2=O)cc1 (stereo not shown) [Compound 240] | + (a “+” indicates that the compound has an MIC value of 16 micrograms/ml or less)
 | CC(CN)Cc1cc(OC(F)(F)F)cc(-c2cc3cn(-c4ccc(CNCCCNC(=N)N)cc4)c(=O)nc3[nH]2)c1 (stereo not shown) [Compound 241] | + (a “+” indicates that the compound has an MIC value of 16 micrograms/ml or less)
 | CC(CN)Cc1cc(-c2cc3cn(-c4ccc(CNCCCNC(=N)N)cc4)c(=O)nc3[nH]2)cc(C(F)(F)F)c1 (stereo not shown) [Compound 242] | + (a “+” indicates that the compound has an MIC value of 16 micrograms/ml or less)
 | CC(C)(CN)CCc1cc(Cl)c(F)c(-c2cc3cn(-c4ccc(CNCCCNC(=N)N)cc4)c(=O)nc3[nH]2)c1 [Compound 243] | + (a “+” indicates that the compound has an MIC value of 16 micrograms/ml or less)
 | N=C(N)NCCCNCc1ccc(-n2cc3cc(-c4cc(CCCCN)cc(CF)c4C(F)(F)F)[nH]c3nc2=O)cc1 [Compound 244] | + (a “+” indicates that the compound has an MIC value of 16 micrograms/ml or less)
 | CCOc1cc(CCCCN)cc(-c2cc3cn(-c4ccc(CNCCCNC(=N)N)cc4)c(=O)nc3[nH]2)c1F [Compound 245] | + (a “+” indicates that the compound has an MIC value of 16 micrograms/ml or less)
 | N=C(N)NCCCNCc1ccc(-n2cc3cc(-c4cc(CCCCN)cc(CO)c4C(F)(F)F)[nH]c3nc2=O)cc1 [Compound 246] | + (a “+” indicates that the compound has an MIC value of 16 micrograms/ml or less)
 | CC(CCN)Cc1cc(SC(F)(F)F)cc(-c2cc3cn(-c4ccc([C@H](C)NCCCNC(=N)N)cc4)c(=O)nc3[nH]2)c1 (stereo partly shown) [Compound 247] | + (a “+” indicates that the compound has an MIC value of 16 micrograms/ml or less)
 | C[C@H](N)CCCc1cc(-c2cc3cn(-c4ccc(CNCCCNC(=N)N)cc4)c(=O)nc3[nH]2)cc(C(F)(F)F)c1 [Compound 248] | + (a “+” indicates that the compound has an MIC value of 16 micrograms/ml or less)
 | C[C@@H](N)CCCc1cc(-c2cc3cn(-c4ccc(CNCCCNC(=N)N)cc4)c(=O)nc3[nH]2)cc(C(F)(F)F)c1 [Compound 249] | + (a “+” indicates that the compound has an MIC value of 16 micrograms/ml or less)

MIC (read-out: E. coli ATCC25922 MIC) | Compound | E. coli ATCC25922 MIC
 | N=C(N)NCCCNCc1ccc(-n2cc3cc(-c4cc(CCCCN)cc(CN)c4C(F)(F)F)[nH]c3nc2=O)cc1 [Compound 250] | + (a “+” indicates that the compound has an MIC value of 16 micrograms/ml or less)
 | CCCOc1cc(CCCCN)cc(-c2cc3cn(-c4ccc(CNCCCNC(=N)N)cc4)c(=O)nc3[nH]2)c1C(F)(F)F [Compound 251] | + (a “+” indicates that the compound has an MIC value of 16 micrograms/ml or less)
 | N=C(N)NCCCNCc1ccc(-n2cc3cc(-c4cc(CC(O)CCN)cc(OC(F)(F)F)c4)[nH]c3nc2=O)cc1 (stereo not shown) [Compound 252] | + (a “+” indicates that the compound has an MIC value of 16 micrograms/ml or less)
 | N=C(N)NCCCNCc1ccc(-n2cc3cc(-c4cc(CCC5(CN)CCC5)cc(Cl)c4F)[nH]c3nc2=O)cc1 [Compound 253] | + (a “+” indicates that the compound has an MIC value of 16 micrograms/ml or less)
 | N=C(N)NCCCNCc1ccc(-n2cc3cc(-c4cc(CCC(O)CN)cc(Cl)c4F)[nH]c3nc2=O)cc1 (stereo not shown) [Compound 254] | + (a “+” indicates that the compound has an MIC value of 16 micrograms/ml or less)
 | CC(C)(N)CCc1cc(OC(F)(F)F)cc(-c2cc3cn(-c4ccc(CNCCCNC(=N)N)cc4)c(=O)nc3[nH]2)c1 [Compound 255] | + (a “+” indicates that the compound has an MIC value of 16 micrograms/ml or less)
 | CC(CN)Cc1cc(Cl)c(F)c(-c2cc3cn(-c4ccc(CNCCCNC(=N)N)cc4)c(=O)nc3[nH]2)c1 (stereo not shown) [Compound 256] | + (a “+” indicates that the compound has an MIC value of 16 micrograms/ml or less)
 | CC(N)CCc1cc(Cl)c(F)c(-c2cc3cn(-c4ccc(CNCCCNC(=N)N)cc4)c(=O)nc3[nH]2)c1 (stereo not shown) [Compound 257] | + (a “+” indicates that the compound has an MIC value of 16 micrograms/ml or less)
 | N=C(N)NCCCNCc1ccc(-n2cc3cc(-c4cc(CCC(O)CN)ccc4F)[nH]c3nc2=O)cc1 (stereo not shown) [Compound 258] | + (a “+” indicates that the compound has an MIC value of 16 micrograms/ml or less)
 | CC(C)(N)CCc1cc(-c2cc3cn(-c4ccc(CNCCCNC(=N)N)cc4)c(=O)nc3[nH]2)cc(C(F)(F)F)c1 [Compound 259] | + (a “+” indicates that the compound has an MIC value of 16 micrograms/ml or less)
 | CC(N)CCc1cc(OC(F)(F)F)cc(-c2cc3cn(-c4ccc(CNCCCNC(=N)N)cc4)c(=O)nc3[nH]2)c1 (stereo not shown) [Compound 260] | + (a “+” indicates that the compound has an MIC value of 16 micrograms/ml or less)
 | CC(C)c1cc(CCC[C@H](C)N)cc(-c2cc3cn(-c4ccc(CNCCCNC(=N)N)cc4)c(=O)nc3[nH]2)c1Cl [Compound 261] | + (a “+” indicates that the compound has an MIC value of 16 micrograms/ml or less)
 | CSc1cc(CCCCN)cc(-c2cc3cn(-c4ccc(CNCCCNC(=N)N)cc4)c(=O)nc3[nH]2)c1C(F)(F)F [Compound 262] | + (a “+” indicates that the compound has an MIC value of 16 micrograms/ml or less)
 | C[C@H](NCCCNC(=N)N)c1ccc(-n2cc3cc(-c4cc(CCCC(C)(C)N)cc(OC(F)(F)F)c4)[nH]c3nc2=O)cc1 [Compound 264] | + (a “+” indicates that the compound has an MIC value of 16 micrograms/ml or less)
 | COc1cc(CCCCN)cc(-c2cc3cn(-c4ccc(CNCCCNC(=N)N)cc4)c(=O)nc3[nH]2)c1C(F)(F)F [Compound 265] | + (a “+” indicates that the compound has an MIC value of 16 micrograms/ml or less)
 | CC(N)CCCc1cc(CCl)cc(-c2cc3cn(-c4ccc(CNCCCNC(=N)N)cc4)c(=O)nc3[nH]2)c1 (stereo not shown) [Compound 266] | + (a “+” indicates that the compound has an MIC value of 16 micrograms/ml or less)
 | N=C(N)NCCCNCc1ccc(-n2cc3cc(-c4cc(Cl)c(F)c(CCCCN)c4)[nH]c3nc2=O)cc1 [Compound 267] | + (a “+” indicates that the compound has an MIC value of 16 micrograms/ml or less)
 | CC(N)CCCc1cc(Cl)c(F)c(-c2cc3cn(-c4ccc(CNCCCNC(=N)N)cc4)c(=O)nc3[nH]2)c1 (stereo not shown) [Compound 268] | + (a “+” indicates that the compound has an MIC value of 16 micrograms/ml or less)
 | CC(N)CCCc1cc(Cl)c(F)c(-c2cc3cn(-c4ccc(C(C)NCCCNC(=N)N)cc4)c(=O)nc3[nH]2)c1 (stereo not shown) [Compound 269] | + (a “+” indicates that the compound has an MIC value of 16 micrograms/ml or less)
 | CC(NCCCNC(=N)N)c1ccc(-n2cc3cc(-c4cc(CCC5(CN)CC5)cc(Cl)c4F)[nH]c3nc2=O)cc1 (stereo not shown) [Compound 272] | + (a “+” indicates that the compound has an MIC value of 16 micrograms/ml or less)
 | CC(N)CCCc1cc(-c2cc3cn(-c4ccc(C(C)NCCCNC(=N)N)cc4)c(=O)nc3[nH]2)c(F)c(C(F)(F)F)c1 (stereo not shown) [Compound 274] | + (a “+” indicates that the compound has an MIC value of 16 micrograms/ml or less)
